# ChEMBL document CHEMBL1201862, “PubChem BioAssay data set” (2004)
# Active and inactive are the calls of the source.
# What was measured:
# [1] = target: T1, Corticotropin-releasing factor receptor 2/Corticotropin-releasing factor-binding protein (Homo sapiens, UniProt P24387+Q13324); test: activators of CRF receptor 2 with binding protein – uHTS hits, confirmation (AID 602473); type: functional; conditions: read-out: EC50_Mean
# T1 sequence (Q13324 whole entry): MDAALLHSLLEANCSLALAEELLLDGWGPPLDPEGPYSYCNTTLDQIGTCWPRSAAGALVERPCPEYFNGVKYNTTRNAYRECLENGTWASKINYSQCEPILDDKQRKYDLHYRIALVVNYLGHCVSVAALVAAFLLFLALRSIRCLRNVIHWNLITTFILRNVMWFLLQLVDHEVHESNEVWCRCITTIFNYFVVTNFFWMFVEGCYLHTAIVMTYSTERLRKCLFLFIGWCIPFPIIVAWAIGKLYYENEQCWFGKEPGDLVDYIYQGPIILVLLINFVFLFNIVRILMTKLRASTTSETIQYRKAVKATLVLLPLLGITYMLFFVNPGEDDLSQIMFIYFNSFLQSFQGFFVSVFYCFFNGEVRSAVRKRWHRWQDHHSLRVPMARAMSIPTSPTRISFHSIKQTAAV
# T1 sequence (P24387 whole entry): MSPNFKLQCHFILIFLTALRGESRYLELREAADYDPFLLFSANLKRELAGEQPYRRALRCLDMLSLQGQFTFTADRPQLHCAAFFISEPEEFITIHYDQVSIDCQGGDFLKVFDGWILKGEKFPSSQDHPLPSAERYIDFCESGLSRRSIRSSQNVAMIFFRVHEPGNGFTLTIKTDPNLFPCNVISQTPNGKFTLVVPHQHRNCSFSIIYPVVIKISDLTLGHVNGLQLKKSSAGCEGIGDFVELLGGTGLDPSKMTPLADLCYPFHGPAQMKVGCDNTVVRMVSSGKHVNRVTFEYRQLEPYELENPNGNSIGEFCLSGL
# [2] = target: T2, Sentrin-specific protease 1 (Homo sapiens, UniProt Q9P0U3); test: SENP1 catalytic domain blockers, concentration series – biochemical, kinetic FRET, dose response (AID 651697); type: functional; conditions: read-out: IC50_Mean
# T2 sequence (Q9P0U3 whole entry): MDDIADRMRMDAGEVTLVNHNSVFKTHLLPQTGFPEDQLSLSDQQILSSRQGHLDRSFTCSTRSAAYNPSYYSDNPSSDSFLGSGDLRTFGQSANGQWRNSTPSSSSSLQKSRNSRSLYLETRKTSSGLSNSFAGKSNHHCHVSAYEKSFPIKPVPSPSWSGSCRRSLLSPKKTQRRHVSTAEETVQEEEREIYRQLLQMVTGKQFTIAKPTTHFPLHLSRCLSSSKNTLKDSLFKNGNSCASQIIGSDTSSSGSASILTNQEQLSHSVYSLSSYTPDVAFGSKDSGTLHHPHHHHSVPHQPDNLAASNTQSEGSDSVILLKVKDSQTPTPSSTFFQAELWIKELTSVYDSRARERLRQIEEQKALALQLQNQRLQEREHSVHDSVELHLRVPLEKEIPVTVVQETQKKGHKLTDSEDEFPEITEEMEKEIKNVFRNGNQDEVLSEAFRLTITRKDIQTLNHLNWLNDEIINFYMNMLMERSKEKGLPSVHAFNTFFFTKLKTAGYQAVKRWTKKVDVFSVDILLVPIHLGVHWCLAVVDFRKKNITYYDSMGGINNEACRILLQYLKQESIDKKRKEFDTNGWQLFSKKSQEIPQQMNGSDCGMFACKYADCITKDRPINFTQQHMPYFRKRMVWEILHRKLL
# [3] = target: T2, Sentrin-specific protease 1; test: Dose response confirmation of small molecule inhibitors of the catalytic domain of the SUMO protease, SENP1 in a FRET assay.; type: functional; conditions: read-out: IC50_Mean
# [4] = cells; type: functional, cell-based
# [5] = cells; type: functional, cell-based; remark: listed apart in the source
# [6] = system: HEK293; test: EBV LMP1 TES2 canonical NF-kB signalling blockers – cell-based, HEK293, luciferase, cherry-pick, dose response (AID 588343); type: functional; conditions: Homo sapiens
# [7] = blockers of HIV-1 envelope-mediated cell-cell fusion – cherry-pick, dose response (AID 652057); type: functional, cell-based
# [8] = blockers of HIV-1 ZM109 envelope-driven cell-cell fusion – HeLa effector, CEM target cells, luciferase, cherry-pick, dose response (AID 652058); type: functional, cell-based;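 further: luciferase signal from HIV-1 Env mediated cell-cell fusion of effector and target cells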
# [9] = off-target signal loss in HeLa-CEM21 co-culture – HeLa F-luc CTL cells, cherry-picked, counter-screen for HIV-1 Env fusion inhibitor project, dose response (AID 652040); type: functional, cell-based;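 further: potency for signal decrease marking cytotoxic or nonspecific inhibition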
# [10] = HIV-1 AD8 envelope cell-cell fusion blockers – cherry-pick, dose response (AID 652062); type: functional, cell-based;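 further: luciferase signal from cell-cell fusion driven by HIV-1 clade B AD8 Env; potency is for inhibitors of fusion seen as a drop in luminescence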
# [11] = target: Beta-lactamase (Salmonella choleraesuis (strain SC-B67), UniProt Q5J463); test: Epi-absorbance-based counterscreen for selective VIM-2 inhibitors: dose response biochemical high throughput screening assay to identify inhibitors of TEM-1 serine-beta-lactamase.
# [12] = target: T3, Beta-lactamase (Pseudomonas aeruginosa, UniProt Q79MP6); test: inhibition of IMP-1 beta-lactamase activity – biochemical, epi-absorbance, selectivity assay for VIM-2 inhibitor project, dose response (AID 1920)
# [13] = target: T3, Beta-lactamase; test: […] counterscreen for selective VIM-2 inhibitors: dose response biochemical high throughput screening assay to identify inhibitors of IMP-1 metallo-beta-lactamase.
# [14] = target: T4, Short transient receptor potential channel 4 (Mus musculus, UniProt Q9QUQ5); test: block of DAMGO-driven TRPC4 calcium entry – cell-based, HEK293 TRPC4/mu-opioid, Fluo-4 calcium, dose response (AID 434942); type: functional;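 further: potency of inhibitors blocking the TRPC4 calcium response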
# T4 sequence (Q9QUQ5 whole entry): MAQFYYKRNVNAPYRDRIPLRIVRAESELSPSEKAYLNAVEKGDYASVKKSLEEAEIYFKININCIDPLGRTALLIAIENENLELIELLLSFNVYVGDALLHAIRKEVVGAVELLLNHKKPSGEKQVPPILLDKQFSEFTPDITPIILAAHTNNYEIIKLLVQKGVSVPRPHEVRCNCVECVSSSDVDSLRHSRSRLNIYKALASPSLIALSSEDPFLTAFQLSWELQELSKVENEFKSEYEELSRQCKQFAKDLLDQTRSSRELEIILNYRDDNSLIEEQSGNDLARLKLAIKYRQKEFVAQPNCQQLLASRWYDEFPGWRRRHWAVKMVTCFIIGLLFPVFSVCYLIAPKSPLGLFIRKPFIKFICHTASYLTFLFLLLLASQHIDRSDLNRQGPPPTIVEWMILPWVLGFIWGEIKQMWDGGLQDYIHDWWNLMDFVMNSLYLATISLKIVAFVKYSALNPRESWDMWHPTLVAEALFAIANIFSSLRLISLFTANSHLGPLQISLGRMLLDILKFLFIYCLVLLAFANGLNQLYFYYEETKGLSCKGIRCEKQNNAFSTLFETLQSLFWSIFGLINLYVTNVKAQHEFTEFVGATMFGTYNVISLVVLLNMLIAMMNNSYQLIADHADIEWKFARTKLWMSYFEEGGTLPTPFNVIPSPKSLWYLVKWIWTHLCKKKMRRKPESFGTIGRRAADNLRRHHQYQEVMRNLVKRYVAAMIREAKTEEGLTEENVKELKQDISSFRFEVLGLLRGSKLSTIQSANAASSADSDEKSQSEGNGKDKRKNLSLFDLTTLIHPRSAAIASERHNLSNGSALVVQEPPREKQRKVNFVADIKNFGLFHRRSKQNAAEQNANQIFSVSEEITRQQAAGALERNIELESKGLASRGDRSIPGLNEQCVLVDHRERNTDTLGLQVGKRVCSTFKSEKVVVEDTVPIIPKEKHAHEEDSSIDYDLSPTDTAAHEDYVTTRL
# [15] = target: T5, Cysteine protease ATG4B (Homo sapiens, UniProt Q9Y4P1); type: functional;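 further: Fluorescence-based dose-response confirmation assay measuring inhibition of ATG4B activity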
# T5 sequence (Q9Y4P1 whole entry): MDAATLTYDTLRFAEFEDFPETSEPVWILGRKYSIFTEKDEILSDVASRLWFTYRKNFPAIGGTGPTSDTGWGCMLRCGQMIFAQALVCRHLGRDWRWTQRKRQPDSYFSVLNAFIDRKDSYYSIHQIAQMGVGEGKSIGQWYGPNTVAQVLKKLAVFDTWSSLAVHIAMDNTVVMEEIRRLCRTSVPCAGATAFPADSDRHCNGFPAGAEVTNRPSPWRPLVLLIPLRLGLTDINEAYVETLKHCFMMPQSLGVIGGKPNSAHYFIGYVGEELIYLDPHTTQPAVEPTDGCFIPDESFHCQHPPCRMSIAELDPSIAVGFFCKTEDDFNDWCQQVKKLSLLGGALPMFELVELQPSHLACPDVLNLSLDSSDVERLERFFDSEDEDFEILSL
# [16] = target: Phospholipase A2 (Homo sapiens, UniProt P04054); type: functional;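 further: confirmatory dose-response counterscreen on phospholipase A2, testing hits that came from an ultra-high-throughput screen for ATG4B inhibitors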
# [17] = target: Fructose-bisphosphate aldolase (Mycobacterium tuberculosis, UniProt P9WQA3); test: Fluorescence-based biochemical high throughput dose response assay for inhibitors of the fructose-bisphosphate aldolase (FBA) of M. tuberculosis.; type: functional
# [18] = target: T6, Methionyl-tRNA synthetase, putative (Trypanosoma brucei brucei, UniProt Q38C91); type: functional, Trypanosoma brucei brucei strain 927/4 GUTat10.1
# T6 sequence (Q38C91 whole entry): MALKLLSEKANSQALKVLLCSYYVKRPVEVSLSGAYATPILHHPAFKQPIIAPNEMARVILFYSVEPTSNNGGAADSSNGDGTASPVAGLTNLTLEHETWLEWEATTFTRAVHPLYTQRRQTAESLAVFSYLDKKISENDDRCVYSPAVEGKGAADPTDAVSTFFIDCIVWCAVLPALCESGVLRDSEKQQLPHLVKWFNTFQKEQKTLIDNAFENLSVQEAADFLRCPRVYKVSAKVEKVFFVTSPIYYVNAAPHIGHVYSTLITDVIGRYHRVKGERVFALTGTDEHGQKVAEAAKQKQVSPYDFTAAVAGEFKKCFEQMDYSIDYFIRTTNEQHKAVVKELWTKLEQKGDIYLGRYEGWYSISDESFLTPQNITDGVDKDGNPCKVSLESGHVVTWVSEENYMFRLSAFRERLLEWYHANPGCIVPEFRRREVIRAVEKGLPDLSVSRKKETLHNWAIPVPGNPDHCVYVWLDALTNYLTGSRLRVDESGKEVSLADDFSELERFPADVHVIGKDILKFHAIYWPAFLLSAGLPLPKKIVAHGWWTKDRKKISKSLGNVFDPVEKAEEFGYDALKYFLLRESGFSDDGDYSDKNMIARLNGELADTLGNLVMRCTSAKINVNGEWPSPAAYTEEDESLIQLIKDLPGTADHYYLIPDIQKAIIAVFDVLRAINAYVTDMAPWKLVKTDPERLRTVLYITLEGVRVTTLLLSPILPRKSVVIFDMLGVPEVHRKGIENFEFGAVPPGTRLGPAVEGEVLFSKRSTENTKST
# [19] = Counterscreen for inhibitors of Trypanosoma brucei methionyl tRNA synthetase (MetRS): Luminescence-based cell-based high throughput dose response assay to identify compounds that are cytotoxic to Jurkat human T lymphocyte cells.; type: functional
# [20] = target: T6, Methionyl-tRNA synthetase, putative; type: functional, Trypanosoma brucei brucei strain 927/4 GUTat10.1; remark: listed apart in the source
# [21] = cytotoxicity in HEK293 background cells – cell-based, dry powder, set 2, counter-screen for EBV LMP1 inhibitor project, dose response (AID 624374); type: functional
# [22] = system: Vero; test: viability loss in Vero cells – cell-based, plate reader, cherry-pick samples, cytotoxicity control, dose response (AID 687020); type: functional; conditions: Chlorocebus sabaeus
# [23] = viability inhibitors of stage V gametocytes – luminescence, dose response (AID 1117278); type: functional, cell-based;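 further: gametocytes exposed to compound for 24 hours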
# [24] = viability loss in human Jurkat cells – cell-based, luminescence, cytotoxicity control for P. falciparum gametocyte viability project, dose response (AID 1117277); type: functional;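 further: potency reflects loss of cellular ATP meaning fewer viable cells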
# [25] = target: Heat shock protein HSP 90-alpha (Homo sapiens, UniProt P07900); type: functional, organism-based
# [26] = target: Long-chain-fatty-acid--AMP ligase FadD28 (Mycobacterium tuberculosis, UniProt P9WQ59); test: Fluorescence polarization aasay to screen for inhibitors that compete for the binding of FadD28 to a bisubstrate Measured in Biochemical System Using Plate Reader - 2147-01_Inhibitor_Dose_CherryPick_Activity.; type: functional, Mycobacterium tuberculosis H37Rv
# [27] = target: Cytochrome P450 3A4 (Homo sapiens, UniProt P08684);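 further: CYP3A4 tested as one member of a cytochrome P450 panel screen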
# [28] = target: Voltage-gated inwardly rectifying potassium channel KCNH2 (Homo sapiens, UniProt Q12809); conditions: Potency;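 further: confirmatory quantitative high-throughput screen measuring inhibition of hERG channel activity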
# Sequence of Voltage-gated inwardly rectifying potassium channel KCNH2 (Q12809 whole entry): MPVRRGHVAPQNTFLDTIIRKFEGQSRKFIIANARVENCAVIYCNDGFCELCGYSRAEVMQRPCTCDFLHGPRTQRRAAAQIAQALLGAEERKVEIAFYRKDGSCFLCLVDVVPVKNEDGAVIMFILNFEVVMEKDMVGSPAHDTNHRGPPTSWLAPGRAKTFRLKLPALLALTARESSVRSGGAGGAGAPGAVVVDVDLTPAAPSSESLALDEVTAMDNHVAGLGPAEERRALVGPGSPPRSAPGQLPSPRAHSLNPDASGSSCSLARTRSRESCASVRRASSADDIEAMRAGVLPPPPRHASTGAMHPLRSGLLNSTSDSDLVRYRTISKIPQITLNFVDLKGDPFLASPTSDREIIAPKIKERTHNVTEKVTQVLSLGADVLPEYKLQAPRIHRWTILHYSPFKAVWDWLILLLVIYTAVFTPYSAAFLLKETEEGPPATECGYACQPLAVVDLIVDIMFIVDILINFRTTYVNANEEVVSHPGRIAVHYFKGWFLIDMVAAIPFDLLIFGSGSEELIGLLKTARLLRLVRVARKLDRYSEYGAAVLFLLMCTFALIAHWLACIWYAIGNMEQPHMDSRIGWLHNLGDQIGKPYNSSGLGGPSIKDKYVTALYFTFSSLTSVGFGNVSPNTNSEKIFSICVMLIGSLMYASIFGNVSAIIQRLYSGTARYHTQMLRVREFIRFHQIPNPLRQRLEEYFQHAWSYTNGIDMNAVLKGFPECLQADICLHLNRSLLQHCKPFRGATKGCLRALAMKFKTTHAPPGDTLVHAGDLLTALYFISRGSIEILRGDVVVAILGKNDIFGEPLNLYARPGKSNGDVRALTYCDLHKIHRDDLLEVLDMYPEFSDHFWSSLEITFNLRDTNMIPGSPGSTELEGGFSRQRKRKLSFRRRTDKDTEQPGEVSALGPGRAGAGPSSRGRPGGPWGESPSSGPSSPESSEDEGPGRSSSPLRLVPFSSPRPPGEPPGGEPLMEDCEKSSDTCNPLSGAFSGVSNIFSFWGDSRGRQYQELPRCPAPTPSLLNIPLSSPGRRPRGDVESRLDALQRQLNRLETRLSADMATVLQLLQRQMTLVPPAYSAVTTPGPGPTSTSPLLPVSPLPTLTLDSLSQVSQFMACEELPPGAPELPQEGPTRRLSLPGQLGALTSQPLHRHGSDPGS
# T3 sequence (Q79MP6 whole entry): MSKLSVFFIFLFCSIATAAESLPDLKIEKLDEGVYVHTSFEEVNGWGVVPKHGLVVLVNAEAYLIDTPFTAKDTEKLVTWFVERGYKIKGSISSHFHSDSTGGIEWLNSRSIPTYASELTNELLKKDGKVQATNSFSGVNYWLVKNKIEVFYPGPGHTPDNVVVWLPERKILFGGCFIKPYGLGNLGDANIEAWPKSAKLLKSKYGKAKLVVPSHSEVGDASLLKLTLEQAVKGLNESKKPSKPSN
# Sequence of Beta-lactamase (Salmonella choleraesuis (strain SC-B67), UniProt Q5J463) (Q5J463 whole entry): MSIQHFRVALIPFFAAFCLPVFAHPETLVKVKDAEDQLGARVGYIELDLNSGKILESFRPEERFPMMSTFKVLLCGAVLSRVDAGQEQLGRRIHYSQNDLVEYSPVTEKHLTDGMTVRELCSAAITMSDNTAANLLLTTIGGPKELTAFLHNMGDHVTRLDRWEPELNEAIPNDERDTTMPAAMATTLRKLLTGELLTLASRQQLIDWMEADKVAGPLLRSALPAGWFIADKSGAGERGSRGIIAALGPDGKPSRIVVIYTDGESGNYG
# Sequence of Fructose-bisphosphate aldolase (P9WQA3 whole entry): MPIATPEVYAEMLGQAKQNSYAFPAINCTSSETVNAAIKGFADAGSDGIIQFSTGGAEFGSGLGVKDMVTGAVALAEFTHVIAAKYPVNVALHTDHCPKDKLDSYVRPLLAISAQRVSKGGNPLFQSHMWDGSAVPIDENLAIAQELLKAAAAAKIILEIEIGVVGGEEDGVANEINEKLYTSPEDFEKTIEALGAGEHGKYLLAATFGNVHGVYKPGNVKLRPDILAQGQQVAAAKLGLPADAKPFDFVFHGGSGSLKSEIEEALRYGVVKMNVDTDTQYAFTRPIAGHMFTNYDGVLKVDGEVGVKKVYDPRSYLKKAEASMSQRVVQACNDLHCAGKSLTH
# Sequence of Cytochrome P450 3A4 (P08684 whole entry): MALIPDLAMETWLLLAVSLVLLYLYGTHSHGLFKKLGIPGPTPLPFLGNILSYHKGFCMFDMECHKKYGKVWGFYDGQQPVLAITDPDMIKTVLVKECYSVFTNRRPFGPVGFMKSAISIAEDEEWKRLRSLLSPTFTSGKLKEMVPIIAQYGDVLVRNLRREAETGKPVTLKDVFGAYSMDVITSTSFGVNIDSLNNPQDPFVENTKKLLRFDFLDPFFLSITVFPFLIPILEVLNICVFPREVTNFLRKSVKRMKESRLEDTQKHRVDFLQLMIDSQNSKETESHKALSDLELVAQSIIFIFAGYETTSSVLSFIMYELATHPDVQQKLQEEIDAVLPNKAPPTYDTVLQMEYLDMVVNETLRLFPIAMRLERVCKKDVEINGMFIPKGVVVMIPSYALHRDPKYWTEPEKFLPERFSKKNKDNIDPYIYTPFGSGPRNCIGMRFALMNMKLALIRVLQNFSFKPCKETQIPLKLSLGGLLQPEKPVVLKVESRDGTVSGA
# Sequence of Phospholipase A2 (P04054 whole entry): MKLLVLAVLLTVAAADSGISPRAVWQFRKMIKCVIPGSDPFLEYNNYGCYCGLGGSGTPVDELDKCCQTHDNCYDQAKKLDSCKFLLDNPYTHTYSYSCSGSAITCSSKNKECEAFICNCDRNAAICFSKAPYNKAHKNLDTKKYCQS
# Sequence of Long-chain-fatty-acid--AMP ligase FadD28 (P9WQ59 whole entry): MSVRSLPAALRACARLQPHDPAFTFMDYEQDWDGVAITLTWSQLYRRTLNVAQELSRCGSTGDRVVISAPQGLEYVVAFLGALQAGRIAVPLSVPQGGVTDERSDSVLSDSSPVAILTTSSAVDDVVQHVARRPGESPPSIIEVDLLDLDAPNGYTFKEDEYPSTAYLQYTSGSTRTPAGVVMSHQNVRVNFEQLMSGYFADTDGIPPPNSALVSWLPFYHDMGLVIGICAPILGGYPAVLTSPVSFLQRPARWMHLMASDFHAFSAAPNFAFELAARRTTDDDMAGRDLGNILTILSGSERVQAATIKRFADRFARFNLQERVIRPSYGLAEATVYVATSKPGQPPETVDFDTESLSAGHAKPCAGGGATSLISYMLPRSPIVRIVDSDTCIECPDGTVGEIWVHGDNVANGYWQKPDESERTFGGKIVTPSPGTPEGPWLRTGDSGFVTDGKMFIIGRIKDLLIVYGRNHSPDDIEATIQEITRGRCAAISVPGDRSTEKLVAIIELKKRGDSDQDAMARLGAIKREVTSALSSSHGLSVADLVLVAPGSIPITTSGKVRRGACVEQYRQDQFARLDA
compound,measurement,setting,value
CN(C)N=C(S)Nc1ccc2nc(-c3ccccn3)c(-c3ccccn3)nc2c1,EC50,[1],> 53 µM (inactive)
same,IC50,[2],14.3 µM (active)
same,IC50,[3],9.92 µM (active)
NC(=O)c1sc2nccc(Nc3ccccc3)c2c1N,EC50,[4],> 350 µM (not active)
same,EC50,[5],> 350 µM (not active)
same,AC50,[6],3.96 µM (active)
same,AC50,[7],1.37 µM (active)
same,AC50,[8],0.726 µM (active)
same,AC50,[9],2.12 µM (active)
same,AC50,[10],< 0.26 µM (active)
O=C1Nc2cc(C(=O)NCCCN3CCOCC3)ccc2S/C1=C/c1ccccc1F,IC50,[11],> 59.6 µM (inactive)
same,IC50,[12],> 59.6 µM (inactive)
same,IC50,[13],> 59.6 µM (inactive)
same,EC50,[14],2.66 µM (active)
CC(C)(C)C(=O)Nc1nnc(CSCc2ccccc2F)s1,IC50,[11],> 59.6 µM (inactive)
same,IC50,[12],> 59.6 µM (inactive)
same,IC50,[13],> 59.6 µM (inactive)
same,IC50,[15],8.86 µM (active)
same,IC50,[16],6.65 µM (active)
CCCC1OC23CCCCC2C(C#N)(C(=N)O3)C1(C#N)C#N (stereo not drawn),IC50,[17],> 9.99 µM (inactive)
Cc1ccc(NC(=O)CN(C)C(=O)Cc2ccc(Cl)cc2Cl)cc1,IC50,[18],16.5 µM (inactive)
same,IC50,[19],83.3 µM (inactive)
same,IC50,[20],6.81 µM (active)
C[C@H](NC(=O)C[C@@H]1C=C[C@@H](NC(=O)Cc2ccccn2)[C@@H](CO)O1)c1ccccc1,AbsAC35,[21],153.45 µM
CN1C(=O)c2cc(NC(=O)Cc3cccs3)ccc2OC[C@@H]2O[C@H](CC(=O)NCc3ccc(-c4ccccc4)cc3)CC[C@H]21,AbsAC35,[21],112.32 µM
O=[N+]([O-])c1ccc(-c2ccc(/C=N/c3cccc4ccccc34)o2)cc1,IC50,[17],8.15 µM (active)
COc1ccc(C2=Nn3c(nnc3-c3ccccc3OC)SC2)cc1OCC1CC1,AC50,[22],29.1 µM (active)
same,IC50,[23],> 109 µM (inactive)
same,IC50,[24],0.35 µM (active)
CCCCCCCC/C=C\CCCCCCCC(=O)NCCO [OLEOYLETHANOLAMIDE],AC50,[25],7.67 µM (active)
same,AC50,[26],> 100 µM (inactive)
same,AC50,[27],31.6 µM (inconclusive)
same,AC50,[28],35.5 µM (inconclusive)
